Experimental data as given in US20200115417A1, “A CYCLIC PEPTIDE AND PHARMACEUTICAL COMPOSITION COMPRISING THE SAME FOR INHIBITING PROLIFERATION OF HEV” (priority 2018, published 2020).
“Also recorded” adds a separate entry of the source. Where no end group is shown, it is not given here.

What was measured:
[1] = test system: g-1 HEV; assay: Release of g-1 HEV from infected ORF4-Huh7 cells; type: cell-based; settings: g-1 HEV clinical isolate, 10 μM CP11 every alternate day for 6 days
Description: For infection studies, the HEV infection model was prepared by infecting 4×10^5 ORF4-Huh7 cells with 8×10^6 genome copies of the g-1 HEV clinical isolate for one hour, followed by three times washing of infected cells in PBS and maintenance in complete media for 5 days prior to treatment with CP11.
(§1) On 6th day post-electroporation/post-infection, HEV infection model was treated every alternate day with 10 μM of CP11 for 6 days followed by measurement of cell viability, quantification of replication of the viral genome and release of the progeny viruses.
(§2) For estimation of the amount of virus released to the culture medium, medium from the above samples were collected and clarified by centrifugation at 7197×g, 4° C. for 15 minutes. 8% PEG (polyethylene glycol) 6000 and 0.4 M NaCl (final concentration) was added to the clarified samples and the mixture was incubated at 0° C. for 16 hours, followed by centrifugation at 20,000×g for 30 minutes. The pellet was resuspended in PBS and RNA was isolated using QIAamp Viral RNA Mini kit. Intracellular RNA was isolated using TRI reagent (MRC, Ohio, USA), following manufactures protocol.

[2] = test system: p6 HEV; assay: QRT-PCR of intracellular p6 HEV sense strand RNA; type: cell-based; settings: 10 μM CP11 every alternate day for 6 days; Huh7 cells; normalized to GAPDH
Description: (§3) The genomic RNAs of p6 HEV and p6 HEV-Luc were synthesized in vitro and size/integrity was monitored by formaldehyde agarose gel electrophoresis. ORF4-Huh7 cell line were prepared as reported (48) and maintained in Dulbecco's modified eagle medium containing 10% fetal calf serum, 50 IU/ml penicillin and streptomycin in 5% CO2. 200 μg/ml hygromycin was added to the cells during routine maintenance. Cells were then electroporated with genomic RNAs of p6 HEV and p6 HEV-Luc in a 4 mm cuvette at 200 Volt, 950 μF and infinite resistance. Electroporated cells were maintained in complete media for 5 days prior to the treatment with CP11.
On 6th day post-electroporation/post-infection, HEV infection model was treated every alternate day with 10 μM of CP11 for 6 days followed by measurement of cell viability, quantification of replication of the viral genome and release of the progeny viruses. […]
For measuring levels of p6 HEV sense RNA and host GAPDH RNA, cDNA was synthesized using random hexamers and Superscript III reverse transcriptase. For subsequent quantitative real time, FP of sequence “[…]” (SEQ ID NO:3) and RP of sequence “accgggacagcgtgga” (SEQ ID NO:4) were used for p6 HEV sense and FP of sequence “[…]” (SEQ ID NO:5) and RP of sequence “[…]” (SEQ ID NO:6) were used for host GAPDH RNA.

[3] = test system: p6 HEV; assay: ELISA of viral capsid protein ORF2 in viruses released to culture medium; type: cell-based; settings: 10 μM CP11 treated samples; Huh7 cells
Description: as §2
An ELISA was standardized using purified recombinant ORF2 protein (112-608aa region) as the antigen and a rabbit polyclonal anti-ORF2 antibody, which was earlier generated and characterized in our laboratory (48). Specificity of the assay was monitored by including appropriate controls such as rabbit preimmune serum and competition with the peptide, which was used to generate the antibody. […]
For ELISA mediated quantification of p6 HEV present in the culture medium, PEG 6000 precipitated virus was resuspended in PBS and coated onto the ELISA plate overnight at 4° C. […]

[4] = test system: p6 HEV expressing Huh7 cells; assay: MTT cell viability assay; type: cell-based, human; settings: 10 μM CP11 every alternate day for 6 days
Description: as §3, §1
Cell viability was measured by MTT [3-(4,5-dimethyl-2-thiazolyl)-2,5-diphenyl-2H-tetrazolium bromide] assay using cell titer 96 non-radioactive cell proliferation assay kit.

[5] = test system: p6 HEV-Luc replicon; assay: p6 HEV-Luc replicon Gaussia luciferase assay; type: cell-based; settings: 10 μM CP11 for 48 hours; Huh7 cells; normalized to cell viability
Description: Possible effect of CP11 on HEV replication was investigated using a Huh7 cell-based model of p6 HEV replicon expressing luciferase. Luciferase assay was done through well-known methods. Briefly, Huh7 cells were electroporated with in vitro synthesized capped genomic RNA of p6 HEV-Luc and maintained in complete media for 5 days prior to the treatment with the cyclic peptide. 6th day post electroporation, 10 μM CP11 was added for 48 hours. Gaussia luciferase activity in the culture media was measured using Renilla luciferase assay kit (Promega, Wisconsin, USA). Luciferase values were normalized to that of the cell viability assay, and plotted as mean±SEM.

[6] = test system: ORF4 and ORF3; assay: In vitro His-pull down assay, ORF3-ORF4 interaction; type: binding, HEV; settings: 1 μM in the reaction mix; western blot
Description: (§4) pGBKT7 RdRp, TSG101 and ORF4 plasmids, in which coding sequence for RdRp, TSG101 and ORF4 is cloned under the control of the T7 promoter along with a N-terminal myc epitope tag was used for in vitro production of HEV RdRp, ORF4 and human TSG101 proteins. A coupled in vitro transcription-translation kit (TNT T7 kit) was used, following manufactures guidelines (Promega, Wis., USA). Aliquots of the TNT expressed proteins were mixed with 2× Laemelli buffer [125 mM Tris (pH 6.8), 4% SDS, 20% glycerol, 100 mM DTT and 0.02% bromophenol blue], incubated at 950 C for 5 minutes, resolved by SDS PAGE and western blotted with anti-myc antibody to confirm protein expression.
An in vitro His-pull down assay was performed to monitor whether cyclic peptide inhibits the interaction between HEV ORF3 and human TSG101 proteins. His tagged ORF3 protein was purified from E. coli BL21 (DE3) following previously described protocols (50). […]
Empty pGBKT7 vector was translated in parallel (denoted as mock lysate) to rule out non-specific cross reactivity of myc antibody with proteins present in the rabbit reticulocyte lysate. […] Two non-specific bands were detected in all samples (denoted by *). […]

[7] = molecular target: T1, HEV ORF3 and human TSG101 proteins (Homo sapiens, UniProt Q99816); assay: In vitro His-pull down assay, ORF3-TSG101 interaction; type: binding; settings: for interaction between ORF3 and TSG101: western blot
T1 construct: made in house; host or cells: ORF3-his: E. coli BL21 (DE3); TSG101-myc: coupled in vitro transcription-translation (TNT T7 kit, Promega; rabbit reticulocyte lysate) from pGBKT7 TSG101
T1 sequence (Q99816 1-390): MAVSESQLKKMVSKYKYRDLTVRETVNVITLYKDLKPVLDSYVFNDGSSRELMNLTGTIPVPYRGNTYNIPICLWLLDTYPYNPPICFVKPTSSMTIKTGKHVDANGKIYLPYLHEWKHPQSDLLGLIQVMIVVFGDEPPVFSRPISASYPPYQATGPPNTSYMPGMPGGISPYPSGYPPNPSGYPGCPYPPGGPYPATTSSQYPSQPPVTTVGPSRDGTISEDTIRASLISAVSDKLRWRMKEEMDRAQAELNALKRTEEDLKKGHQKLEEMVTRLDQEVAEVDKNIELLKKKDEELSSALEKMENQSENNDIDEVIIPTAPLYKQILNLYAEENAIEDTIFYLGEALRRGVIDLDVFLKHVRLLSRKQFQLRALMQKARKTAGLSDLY
Description: as §4
An in vitro His-pull down assay was performed to monitor whether cyclic peptide inhibits the interaction between HEV ORF3 and human TSG101 proteins. His tagged ORF3 protein was purified from E. coli BL21 (DE3) following previously described protocols (50). Ni-NTA super flow agarose (Thermo Scientific, Massachusetts, USA) bound ORF3-his was equally aliquoted into separate 1.5 ml tubes followed by addition of TNT generated mock lysate, RdRp-myc lysate, TSG101-myc lysate, ORF4-myc lysate and CP11 (1 μM or 10 μM) in the required combinations in phosphate buffered saline (PBS; 10 mM PO43-, 137 mM NaCl, 2.7 mM KCl) supplemented with protease inhibitor cocktail. Samples were incubated on a flip flop shaker at 4° C. for 1 hour, followed by three washes in PBS. 30p1 of 2× Laemelli buffer was added to the beads and incubated at 950 C for 5 minutes. Aliquots of the eluted proteins were resolved by SDS-PAGE and western blotting was done using anti-myc and anti-ORF3 antibodies.
Empty pGBKT7 vector was translated in parallel (denoted as mock lysate) to rule out non-specific cross reactivity of myc antibody with proteins present in the rabbit reticulocyte lysate. RdRp, TSG101 and ORF4 plasmid containing samples produced bands corresponding to their expected size (FIG. 1B). Two non-specific bands were detected in all samples (denoted by *). […]

“CP11: Peptide 11 (CGWIYWNV; SEQ ID NO:1), cyclized and conjugated with the linear Tat peptide (CGRKKRRQRRRPPQ; SEQ ID NO:2) (also: peptide 11 cyclized, mode not given here, conjugated to linear Tat peptide, linkage not given here)” was tested, and the “block of release of g-1 HEV” value [1] was “approximately 90%”, the “viral sense strand RNA level in cells” value [2] was “significant increase” and the “ORF2 level in PEG 6000 precipitated virus from culture medium” value [3] was “significantly less”. For the same substance, the “cytotoxic effect (cell viability, MTT)” value [4] was “ruled out the possible cytotoxic effect; also recorded: without showing any cytotoxicity”, the “luciferase activity (viral replication/RNA stability)” value [5] was “no effect” and the “interaction between ORF4 and ORF3” value [6] was “remains unaffected”. For the same substance, the “interaction between ORF3 and TSG101” value ([7]; 1 μM in the reaction mix) was “significantly reduced”, the “interaction between ORF3 and TSG101” value ([7]; 10 μM of CP11 in the reaction mixture) was “completely inhibited” and the “inhibition of the interaction between ORF3 and TSG101 proteins, compared with other peptides” value ([7]; out of several cyclic peptides screened) was “most efficiently”.
